{"source": "patent US12054485B2", "about": "“Substituted imidazoquinolines” (BIONTECH SE, priority 2017, dated 2024)", "key": {"cynomolgus monkeys": {"tested_on": "cynomolgus monkeys", "experiment": "In vivo IFN-α secretion in cynomolgus monkeys (plasma IFN-α ELISA)", "settings": "cynomolgus monkey, single i.v. 30 min infusion, 0.1 mg/kg", "protocol": "In the following studies, compounds according to the invention were examined in an in vivo cynomolgus monkey model. It is evaluated whether and at which applied dose the compounds cause secretion of IFN-α.\nIn particular, a defined single dose of test compound was applied intravenously to cynomolgus monkeys by a thirty minute infusion. At several time points after initiation of the intravenous compound application, blood samples (0.5 mL for approximately 0.25 mL plasma) were collected from the vena cephalica antebrachii or vena saphena into K3EDTA tubes from the animals. Blood samples were stored on crushed ice prior to centrifugation. Plasma was obtained by centrifugation at 4° C. and approximately 1800 g for 10 minutes and was aliquoted into labeled micro tubes and stored frozen at −70° C. or below. Plasma samples were thawed, diluted and used for determination of IFN-α levels using an IFN-α Elisa Kit (e.g. VeriKine™ Cynomolgus/Rhesus IFN-α ELISA Kit) according to the manufacturer's instructions."}, "human TLR8": {"molecular_target": "T1, human TLR8 (Homo sapiens, UniProt Q9NR97)", "T1 construct": "host or cells: HEK-Blue-hTLR8", "T1 sequence (Q9NR97 27-1041)": "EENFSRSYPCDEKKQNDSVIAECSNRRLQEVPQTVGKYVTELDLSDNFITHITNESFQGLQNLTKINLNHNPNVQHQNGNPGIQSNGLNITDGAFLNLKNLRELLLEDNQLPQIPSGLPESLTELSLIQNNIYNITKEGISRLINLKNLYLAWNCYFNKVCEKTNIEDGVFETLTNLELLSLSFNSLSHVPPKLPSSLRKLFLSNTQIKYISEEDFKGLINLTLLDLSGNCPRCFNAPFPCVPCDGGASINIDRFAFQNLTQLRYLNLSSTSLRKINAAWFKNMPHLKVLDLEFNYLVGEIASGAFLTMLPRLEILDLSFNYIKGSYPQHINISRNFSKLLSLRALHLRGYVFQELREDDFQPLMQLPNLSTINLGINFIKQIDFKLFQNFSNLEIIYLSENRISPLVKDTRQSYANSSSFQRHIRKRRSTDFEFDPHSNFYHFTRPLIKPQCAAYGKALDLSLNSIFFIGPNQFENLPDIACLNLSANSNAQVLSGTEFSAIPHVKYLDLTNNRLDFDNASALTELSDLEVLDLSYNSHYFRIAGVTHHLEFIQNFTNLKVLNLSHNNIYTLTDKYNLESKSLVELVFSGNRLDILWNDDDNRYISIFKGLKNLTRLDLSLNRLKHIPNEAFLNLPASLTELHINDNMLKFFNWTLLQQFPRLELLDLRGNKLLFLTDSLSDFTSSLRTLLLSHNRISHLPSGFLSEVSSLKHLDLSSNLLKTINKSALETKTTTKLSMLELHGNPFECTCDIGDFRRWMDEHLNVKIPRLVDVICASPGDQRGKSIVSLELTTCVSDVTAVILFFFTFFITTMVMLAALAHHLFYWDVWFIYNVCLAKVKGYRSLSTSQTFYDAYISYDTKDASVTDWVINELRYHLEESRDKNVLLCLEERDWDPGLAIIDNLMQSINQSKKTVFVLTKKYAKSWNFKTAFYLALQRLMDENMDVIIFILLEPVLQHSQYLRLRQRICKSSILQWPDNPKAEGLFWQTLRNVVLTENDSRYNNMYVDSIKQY", "experiment": "TLR8 reporter gene assay (HEK-Blue-hTLR8, NFkB/AP-1 inducible SEAP)", "type": "cell-based", "protocol": "2) TLR Stimulation Assay:\nCompounds are tested for stimulation of human TLR7 and TLR8, respectively, via reporter gene expression analyzed in a cell line stably transfected with human TLR7 and TLR8, respectively, and coexpressing an NFkB/AP-1 inducible SEAP reporter gene. Stimulation with a TLR ligand leads to NFkB/AP-1 activation and upregulation and secretion of SEAP, which can be measured in the supernatant with QuantiBlue™ detection system (InvivoGen).\nCell lines used were either HEK-Blue-hTLR7 (InvivoGen #hkb-htlr7) or HEK-Blue-hTLR8 (InvivoGen #hkb-htlr8). Cells were cultured following manufacturer's instructions. […]"}}}
{"molecule": "CCc1nc2c(N)nc3ccccc3c2n1CCCCN(C(C)=O)C1CCOCC1", "note": "[Example 1, N-(4-(4-Amino-2-ethyl-1H-imidazo[4,5-c]quinolin-1-yl)butyl)-N-(tetrahydro-2H-pyran-4-yl)acetamide]", "values": [{"measurement": "IFN-α secretion (plasma)", "setting": "cynomolgus monkeys", "value": "up to 15,000 pg/ml"}, {"measurement": "activity towards TLR8 in the TLR8 reporter gene assay", "setting": "human TLR8", "value": "no activity"}]}
